# Source: ChEMBL document CHEMBL1128953, “Solid-phase synthesis of peptidosulfonamide containing peptides derived from Leu-enkephalin” (Bioorg Med Chem Lett, 1996)
# Peptide text beside a SMILES is read from it. * marks the point of attachment. X1 = CC(C)C[C@@H](CS(N)(=O)=O)N*
# Assay: Compound was tested for inhibition of anti-beta-endorphin monoclonal antibody by using ELISA assay.
# Assay type: functional
row,SMILES,IC50
1,CC(C)C[C@H](NC(=O)[C@H](Cc1ccccc1)NS(=O)(=O)CCNC(=O)CNC(=O)[C@@H](N)Cc1ccc(O)cc1)C(N)=O,85 µM
2,CC(C)C[C@H](NC(=O)[C@H](Cc1ccccc1)NC(=O)CNC(=O)CNC(=O)[C@@H](N)Cc1ccc(O)cc1)C(N)=O [[LEU5]ENKEPHALIN],0.07 µM
3,CC(C)C[C@H](NS(=O)(=O)C[C@H](Cc1ccccc1)NC(=O)CNC(=O)CNC(=O)[C@@H](N)Cc1ccc(O)cc1)C(=O)O,5 µM
4,CC(C)C[C@H](NS(=O)(=O)C[C@H](Cc1ccccc1)NC(=O)CNC(=O)CNC(=O)[C@@H](N)Cc1ccc(O)cc1)C(N)=O,0.9 µM
5,CC(C)C[C@H](NC(=O)[C@H](Cc1ccccc1)NS(=O)(=O)CCNC(=O)CNC(=O)[C@@H](N)Cc1ccc(O)cc1)C(=O)O,> 200 µM
6,CC(C)C[C@H](NC(=O)[C@H](Cc1ccccc1)NC(=O)CNS(=O)(=O)CCNC(=O)[C@@H](N)Cc1ccc(O)cc1)C(N)=O,75 µM
7,CC(C)C[C@H](NC(=O)[C@H](Cc1ccccc1)NC(=O)CNS(=O)(=O)CCNC(=O)[C@@H](N)Cc1ccc(O)cc1)C(=O)O,> 200 µM
8,CC(C)C[C@@H](CS(N)(=O)=O)NC(=O)[C@H](Cc1ccccc1)NC(=O)CNC(=O)CNC(=O)[C@@H](N)Cc1ccc(O)cc1 (H-YGGF-X1),0.1 µM
